According to ChEMBL document CHEMBL1201862, “PubChem BioAssay data set” (2004):
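In this assay, cells in 96-well plates receive the compound at five concentrations for 48 hours. Endpoints are linearly interpolated between the surrounding concentrations. GI50 marks 50% less growth.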 Active and inactive are the calls of the source. Rule as the data show it: active = GI50 up to about 1.1 µM and inactive = higher.

Experiments:
Experiment in all cases: NCI tumour cell line growth inhibition, 48 h
SK-MEL-28 = tested on: SK-MEL-28
SNB-19 = tested on: SNB-19
K562 = tested on: K562
ACHN = tested on: ACHN
T47D = tested on: T47D
MDA-N = tested on: MDA-N
U-251 = tested on: U-251
RXF 393 = tested on: RXF 393
OVCAR-4 = tested on: OVCAR-4
SN12C = tested on: SN12C
SK-MEL-5 = tested on: SK-MEL-5
TK-10 = tested on: TK-10
SF-268 = tested on: SF-268
RPMI-8226 = tested on: RPMI-8226
A549 = tested on: A549
PC-3 = tested on: PC-3
A498 = tested on: A498
LOX IMVI = tested on: LOX IMVI
SF-539 = tested on: SF-539

| Structure (SMILES) | GI50 (SK-MEL-28) | GI50 (SNB-19) | GI50 (K562) | GI50 (ACHN) | GI50 (T47D) | GI50 (MDA-N) | GI50 (U-251) | GI50 (RXF 393) | GI50 (OVCAR-4) | GI50 (SN12C) | GI50 (SK-MEL-5) | GI50 (TK-10) | GI50 (SF-268) | GI50 (RPMI-8226) | GI50 (A549) | GI50 (PC-3) | GI50 (A498) | GI50 (LOX IMVI) | GI50 (SF-539) |
| --- | --- | --- | --- | --- | --- | --- | --- | --- | --- | --- | --- | --- | --- | --- | --- | --- | --- | --- | --- |
| O=C1c2cccnc2-c2nccc3c2c1nc1cc(Br)ccc13 | 0.0843 µM (active) | 0.27 µM (active) | 0.033 µM (active) | 0.208 µM (active) | 0.0883 µM (active) | 0.225 µM (active) | 0.0843 µM (active) | 0.0946 µM (active) | 0.148 µM (active) | 0.101 µM (active) | 0.132 µM (active) | 0.979 µM (active) | 0.134 µM (active) | 0.0748 µM (active) | 0.122 µM (active) | 0.275 µM (active) | 0.0196 µM (active) | 0.0533 µM (active) | 0.279 µM (active) |
| COc1cccc(Nc2n[nH]c(NS(=O)(=O)c3cc(C)c(Cl)cc3S)n2)c1 | > 100 µM (inactive) | > 100 µM (inactive) | > 100 µM (inactive) | > 100 µM (inactive) | > 100 µM (inactive) | > 100 µM (inactive) | > 100 µM (inactive) | > 100 µM (inactive) | > 100 µM (inactive) | > 100 µM (inactive) | > 100 µM (inactive) | > 100 µM (inactive) | > 100 µM (inactive) | > 100 µM (inactive) | > 100 µM (inactive) | > 100 µM (inactive) | > 100 µM (inactive) | > 100 µM (inactive) | > 100 µM (inactive) |
| Cc1ccc(/C(C#N)=C/c2cccc([N+](=O)[O-])c2)cc1 | > 100 µM (inactive) | 43.8 µM (inactive) | > 100 µM (inactive) | > 100 µM (inactive) | > 100 µM (inactive) | > 100 µM (inactive) | 46.7 µM (inactive) | 19.3 µM (inactive) | 57.8 µM (inactive) | > 100 µM (inactive) | > 100 µM (inactive) | 92.5 µM (inactive) | 37.2 µM (inactive) | > 100 µM (inactive) | > 100 µM (inactive) | > 100 µM (inactive) | 59.4 µM (inactive) | > 100 µM (inactive) | 46.5 µM (inactive) |
| COc1ccc(N2C(=O)C3c4[nH]c5ccc(OCc6ccccc6)cc5c4C4CCC(C(C)C)CC4C3C2=O)cc1 (stereo unspecified) | > 100 µM (inactive) | 9.33 µM (inactive) | 16.7 µM (inactive) | 10.8 µM (inactive) | 33.2 µM (inactive) | > 100 µM (inactive) | 10.8 µM (inactive) | 13.4 µM (inactive) | 19.4 µM (inactive) | > 100 µM (inactive) | > 100 µM (inactive) | > 30.3 µM (inactive) | 17.2 µM (inactive) | > 72.6 µM (inactive) | 50.6 µM (inactive) | > 89.9 µM (inactive) | 5.71 µM (inactive) | 80.5 µM (inactive) | 6.03 µM (inactive) |
| OCCCCn1cc(Cn2ncc3c(O)ncnc32)nn1 | > 100 µM (inactive) | > 100 µM (inactive) | > 100 µM (inactive) | > 100 µM (inactive) | > 100 µM (inactive) | > 100 µM (inactive) | > 100 µM (inactive) | > 100 µM (inactive) | > 100 µM (inactive) | > 100 µM (inactive) | > 100 µM (inactive) | > 100 µM (inactive) | > 100 µM (inactive) | > 100 µM (inactive) | > 100 µM (inactive) | > 100 µM (inactive) | > 100 µM (inactive) | > 100 µM (inactive) | > 100 µM (inactive) |
| COC(=O)C1CC2C=CC1N(C(=O)OCc1ccccc1)C2 (stereo unspecified) | > 100 µM (inactive) | > 100 µM (inactive) | > 100 µM (inactive) | > 100 µM (inactive) | 85.7 µM (inactive) | > 100 µM (inactive) | > 100 µM (inactive) | > 100 µM (inactive) | > 100 µM (inactive) | > 100 µM (inactive) | 92 µM (inactive) | > 100 µM (inactive) | > 100 µM (inactive) | > 100 µM (inactive) | > 100 µM (inactive) | > 100 µM (inactive) | > 100 µM (inactive) | > 100 µM (inactive) | > 100 µM (inactive) |
| CC(=O)/C(=C(/Br)I)c1ccccc1 | 11.2 µM (inactive) | 17.3 µM (inactive) | 2.82 µM (inactive) | 13 µM (inactive) | 3.48 µM (inactive) | 3.45 µM (inactive) | 13.1 µM (inactive) | 3.36 µM (inactive) | 12.5 µM (inactive) | 5.26 µM (inactive) | 7.71 µM (inactive) | 21 µM (inactive) | 12 µM (inactive) | 2.58 µM (inactive) | 20 µM (inactive) | 16.8 µM (inactive) | 14.5 µM (inactive) | 9.84 µM (inactive) | 16.6 µM (inactive) |
| CC1=NN(C(=O)c2ccccc2O)C(c2ccccc2Cl)C1C(=O)Nc1ccccc1 (stereo unspecified) | 40.4 µM (inactive) | 0.0306 µM (active) | < 0.0235 µM (active) | 0.0238 µM (active) | 0.0435 µM (active) | < 0.0205 µM (active) | < 0.0213 µM (active) | 0.0553 µM (active) | 0.098 µM (active) | 0.0224 µM (active) | 0.167 µM (active) | 3.1 µM (inactive) | < 0.01 µM (active) | 0.0726 µM (active) | < 0.0158 µM (active) | 1.75 µM (inactive) | < 0.01 µM (active) | 0.0728 µM (active) | < 0.0298 µM (active) |
| C=C1[C@@H](O)C[C@@]23CC[C@@H]4[C@@]5(C)CC[C@@H](OC(C)=O)C(C)(C)[C@@H]5C[C@@H](OC5OC(COC(C)=O)C(O)C(O)C5O)[C@@]4(C)C2=CC[C@H]3[C@H]1C (stereo partly specified) | 7.35 µM (inactive) | 4.93 µM (inactive) | 2.99 µM (inactive) | 9.12 µM (inactive) | 5.09 µM (inactive) | 5.16 µM (inactive) | 3.03 µM (inactive) | 4.27 µM (inactive) | 5.57 µM (inactive) | 7.98 µM (inactive) | 4 µM (inactive) | 8.41 µM (inactive) | 4.82 µM (inactive) | 2.84 µM (inactive) | 4.49 µM (inactive) | 3.66 µM (inactive) | 9.73 µM (inactive) | 3.01 µM (inactive) | 11.8 µM (inactive) |
| CCOC(=O)c1[nH]c(-c2[nH]c(-c3[nH]c(-c4[nH]c(C(=O)OCC)c(C)c4C(=O)OCC)c(C(=O)OCC)c3C)c(C)c2C(=O)OCC)c(C(=O)OCC)c1C | > 100 µM (inactive) | > 100 µM (inactive) | > 100 µM (inactive) | > 100 µM (inactive) | > 100 µM (inactive) | > 100 µM (inactive) | > 100 µM (inactive) | > 100 µM (inactive) | > 100 µM (inactive) | > 100 µM (inactive) | 50.4 µM (inactive) | > 100 µM (inactive) | > 100 µM (inactive) | > 100 µM (inactive) | > 100 µM (inactive) | > 100 µM (inactive) | > 100 µM (inactive) | > 100 µM (inactive) | > 100 µM (inactive) |
| COC1(OC)C2(Cl)CCC1(Cl)C(OC(C)=O)C2 (stereo unspecified) | > 100 µM (inactive) | > 100 µM (inactive) | > 100 µM (inactive) | > 100 µM (inactive) | > 100 µM (inactive) | > 100 µM (inactive) | > 100 µM (inactive) | > 100 µM (inactive) | > 100 µM (inactive) | > 100 µM (inactive) | > 100 µM (inactive) | > 100 µM (inactive) | > 100 µM (inactive) | > 100 µM (inactive) | > 100 µM (inactive) | > 100 µM (inactive) | > 100 µM (inactive) | > 100 µM (inactive) | > 100 µM (inactive) |
| N/C(=N\O)N/N=C/c1ccc2c(c1)OCO2 | 46 µM (inactive) | 62.7 µM (inactive) | 18.5 µM (inactive) | 20 µM (inactive) | 46 µM (inactive) | 36.5 µM (inactive) | 36.6 µM (inactive) | 29 µM (inactive) | 26.4 µM (inactive) | 34.4 µM (inactive) | 15.4 µM (inactive) | 55 µM (inactive) | 13.9 µM (inactive) | 21.2 µM (inactive) | 14.7 µM (inactive) | 26.2 µM (inactive) | 21 µM (inactive) | 17.4 µM (inactive) | 27.7 µM (inactive) |
| COC(=O)OC[C@H]1O[C@@H](n2cc(C)c(=O)[nH]c2=O)CC1OC(=O)OC (stereo partly specified) | > 100 µM (inactive) | > 100 µM (inactive) | > 100 µM (inactive) | > 100 µM (inactive) | > 100 µM (inactive) | > 100 µM (inactive) | > 100 µM (inactive) | > 100 µM (inactive) | > 100 µM (inactive) | > 100 µM (inactive) | > 100 µM (inactive) | > 100 µM (inactive) | > 100 µM (inactive) | > 100 µM (inactive) | > 100 µM (inactive) | > 100 µM (inactive) | > 100 µM (inactive) | > 100 µM (inactive) | > 100 µM (inactive) |
| COC(=O)CSc1cc(Cl)c(C)cc1S(=O)(=O)Nc1n[nH]c(N)n1 | > 10 µM (inactive) | > 10 µM (inactive) | > 10 µM (inactive) | > 10 µM (inactive) | > 10 µM (inactive) | > 10 µM (inactive) | > 10 µM (inactive) | > 10 µM (inactive) | > 10 µM (inactive) | > 10 µM (inactive) | > 10 µM (inactive) | > 10 µM (inactive) | > 10 µM (inactive) | > 10 µM (inactive) | > 10 µM (inactive) | > 10 µM (inactive) | > 10 µM (inactive) | > 10 µM (inactive) | > 10 µM (inactive) |
